# In patent publication US11964953B2, “Substituted aminothiazoles as DGKzeta inhibitors for immune activation” (Bayer Aktiengesellschaft, priority 2020, dated 2024):
# Molecular target: human DGKζ (Homo sapiens (Human), UniProt Q13574)
# Experiment: Human DGKζ kinase activity inhibition assay (ADP-Glo)
# Format: biochemical
# Settings: in vitro human DGKζ kinase activity inhibition assay; read-out: IC50
# Protocol: Human DGKζ Kinase Activity Inhibition Assay. Human diacylglycerol kinase zeta (DGKζ) inhibitory activity of compounds of the present invention was quantified employing the human DGKζ kinase activity assay as described in the following paragraphs. In essence, the enzyme activity was measured by quantification of the adenosine-di-phosphate (ADP) generated as a co-product of the enzyme reaction via the “ADP-Glo™ Kinase Assay” kit from the company Promega. This detection system works as follows: In a first step the adenosine-tri-phosphate (ATP) not consumed in the kinase reaction is quantitatively converted to cyclic adenosine-mono-phosphate (cAMP) employing an adenylate cyclase (“ADP-Glo-reagent”), then the adenylate cyclase is stopped and the ADP generated in the kinase reaction is converted to ATP, which subsequently generates in a luciferase-based reaction a glow-luminescence signal (“Kinase Detection Reagent”). C-terminally FLAG-tagged, recombinant full-length human DGKζ (in house expressed in baculovirus infected insect cells, purified using anti-Flag pulldown and size exclusion chromatography) was used as enzyme. As an alternative, commercially available enzyme by Carnabio can be used. […] Subsequently, 22.55 volumes of a 510 mM solution of octyl-β-D-glucopyranoside (Sigma-Aldrich, Cat. #O8001-10G) in 50 mM MOPS buffer (pH 7.4) were added, and the mixture was sonicated in an ultrasonic bath for 20 s. […] Viewlux™ from Perkin-Elmer). The amount of emitted light was taken as a measure for the amount of ADP generated and thereby for the activity of the DGKζ.
# Sequence of human DGKζ (Q13574 other isoform, or with tags, fused parts or gaps): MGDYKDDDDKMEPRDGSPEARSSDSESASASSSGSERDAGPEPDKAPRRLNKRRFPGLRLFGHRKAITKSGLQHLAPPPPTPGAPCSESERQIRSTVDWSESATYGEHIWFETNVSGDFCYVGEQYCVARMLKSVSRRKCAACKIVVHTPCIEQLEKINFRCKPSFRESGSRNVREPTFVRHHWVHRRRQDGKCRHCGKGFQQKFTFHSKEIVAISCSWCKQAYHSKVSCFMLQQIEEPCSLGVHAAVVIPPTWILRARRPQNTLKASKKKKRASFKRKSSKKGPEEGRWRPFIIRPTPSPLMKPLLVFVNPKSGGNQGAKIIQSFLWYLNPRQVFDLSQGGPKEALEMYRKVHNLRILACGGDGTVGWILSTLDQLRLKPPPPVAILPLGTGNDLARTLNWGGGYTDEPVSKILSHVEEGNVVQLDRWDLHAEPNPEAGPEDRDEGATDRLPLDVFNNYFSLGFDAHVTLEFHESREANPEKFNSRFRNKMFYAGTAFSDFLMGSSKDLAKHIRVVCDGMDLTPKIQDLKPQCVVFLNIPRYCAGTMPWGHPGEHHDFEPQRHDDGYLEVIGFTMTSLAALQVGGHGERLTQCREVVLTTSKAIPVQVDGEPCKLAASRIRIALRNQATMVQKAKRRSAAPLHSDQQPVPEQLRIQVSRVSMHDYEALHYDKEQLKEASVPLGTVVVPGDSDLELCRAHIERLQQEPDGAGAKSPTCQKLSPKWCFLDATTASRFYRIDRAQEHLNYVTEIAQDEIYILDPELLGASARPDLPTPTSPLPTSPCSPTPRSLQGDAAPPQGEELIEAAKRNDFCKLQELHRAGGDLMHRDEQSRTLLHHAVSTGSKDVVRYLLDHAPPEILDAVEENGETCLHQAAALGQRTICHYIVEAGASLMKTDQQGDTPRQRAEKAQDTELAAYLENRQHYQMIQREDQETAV
row,IC50 [nM],Compound
1,57.5,"CC(C(N)=O)N(c1nc(N)c(C(=O)c2ccccc2)s1)c1ccc(Cl)cc1F (racemic) [Example 30, rac-2-(N-(4-amino-5-benzoyl-thiazol-2-yl)-4-chloro-2-fluoro-anilino)propanamide]"
2,43.5,"CC(C(N)=O)N(c1ccc(F)cc1)c1nc(N)c(C(=O)c2ccc3c(c2)CCC3)s1 (racemic) [Example 31, rac-2-(N-[4-amino-5-(indane-5-carbonyl)thiazol-2-yl]-4-fluoro-anilino)propanamide]"
3,38.7,"CC(C(N)=O)N(c1ccc(F)c(F)c1)c1nc(N)c(C(=O)c2ccccc2)s1 (racemic) [Example 32, rac-2-(N-(4-amino-5-benzoyl-thiazol-2-yl)-3,4-difluoro-anilino)propanamide]"
4,42.8,"CC(C(N)=O)N(c1ccc(F)cc1)c1nc(N)c(C(=O)c2ccc(C#N)cc2)s1 (racemic) [Example 33, rac-2-(N-[4-amino-5-(4-cyanobenzoyl)thiazol-2-yl]-4-fluoro-anilino)propanamide]"
5,34.4,"CC(C(N)=O)N(c1ccc(Cl)cc1)c1nc(N)c(C(=O)c2ccccc2)s1 (racemic) [Example 34, rac-2-(N-(4-amino-5-benzoyl-thiazol-2-yl)-4-chloro-anilino)propanamide]"
6,25.3,"CC(C(N)=O)N(c1ccc(Cl)c(Cl)c1)c1nc(N)c(C(=O)c2ccccc2)s1 (racemic) [Example 35, rac-2-(N-(4-amino-5-benzoyl-thiazol-2-yl)-3,4-dichloro-anilino)propanamide]"
7,22.2,"CC(C(N)=O)N(c1ccc(Cl)c(F)c1)c1nc(N)c(C(=O)c2ccccc2)s1 (racemic) [Example 36, rac-2-(N-(4-amino-5-benzoyl-thiazol-2-yl)-4-chloro-3-fluoro-anilino)propanamide]"
8,19.8,"CC(C(N)=O)N(c1ccc(Cl)cc1)c1nc(N)c(C(=O)c2ccc(F)cc2)s1 (racemic) [Example 37, rac-2-(N-[4-amino-5-(4-fluorobenzoyl)thiazol-2-yl]-4-chloro-anillno)propanamide]"
9,19.3,"CC(C(N)=O)N(c1ccc(F)cc1)c1nc(N)c(C(=O)c2ccc(Cl)cc2)s1 (racemic) [Example 38, rac-2-(N-[4-amino-5-(4-chlorobenzoyl)thiazol-2-yl]-4-fluoro-anilino)propanamide]"
10,19,"CCOC(=O)C(C)(C)Oc1ccc(C(=O)c2sc(N(c3ccc(F)cc3)C(C)C(N)=O)nc2N)cc1 (racemic) [Example 39, Rac-ethyl 2-[4-[4-amino-2-(N-[2-amino-1-methyl-2-oxo-ethyl]-4-fluoro-anilino)thiazole-5-carbonyl]phenoxy]-2-methyl-propanoate]"
11,15.4,"CC(C(N)=O)N(c1ccc(F)cc1)c1nc(N)c(C(=O)c2ccc(OC(F)(F)F)cc2)s1 (racemic) [Example 40, rac-2-(N-[4-amino-5-[4-(trifluoromethoxy)benzoyl]thiazol-2-yl]-4-fluoro-anilino)propanamide]"
12,13.5,"CC(C(N)=O)N(c1ccc(Cl)cc1)c1nc(N)c(C(=O)c2ccc(Cl)cc2)s1 (racemic) [Example 41, rac-2-(N-[4-amino-5-(4-chlorobenzoyl)thiazol-2-yl]-4-chloro-anilino)propanamide]"
13,11.3,"CC(C(N)=O)N(c1ccc(F)cc1)c1nc(N)c(C(=O)c2ccc(C(F)(F)F)cc2)s1 (racemic) [Example 42, rac-2-(N-[4-amino-5-[4-(trifluoromethyl)benzoyl]thiazol-2-yl]-4-fluoro-anilino)propanamide]"
14,11.1,"CC(C(N)=O)N(c1ccc(C(F)(F)F)cc1)c1nc(N)c(C(=O)c2ccc(OC(F)F)cc2)s1 (racemic) [Example 43, rac-2-[N-[4-amino-5-[4-(difluoromethoxy)benzoyl]thiazol-2-yl-4-(trifluoromethyl)anilino]propanamide]"
15,338,"CC(Oc1ccc(C(=O)c2sc(N(c3ccccc3)C(C)C(N)=O)nc2N)cc1)C(N)=O (racemic) [Example 45, 2-(N-[4-amino-5-[4-[2-amino-1-methyl-2-oxo-ethoxy]benzoyl]thiazol-2-yl]anilino)propanamide]"
16,7.07,"CC(C(N)=O)N(c1nc(N)c(C(=O)c2ccc(OC(F)F)cc2)s1)c1ccc(Cl)cc1F (racemic) [Example 46, rac-2-(N-[4-amino-5-[4-(difluoromethoxy)benzoyl]thiazol-2-yl]-4-chloro-2-fluoro-anilino)propanamide]"

row,IC50 [nM],Compound
1,3.77,"CC(C(N)=O)N(c1ccc(Cl)cc1)c1nc(N)c(C(=O)c2ccc(OC(F)F)cc2)s1 (racemic) [Example 47, rac-2-(N-[4-amino-5-[4-(difluoromethoxy)benzoyl]thiazol-2-yl]-4-chloro-anilino)propanamide]"
2,3.72,"CC(C(N)=O)N(c1ccc(Cl)c(F)c1)c1nc(N)c(C(=O)c2ccc(OC(F)F)cc2)s1 (racemic) [Example 48, rac-2-(N-[4-amino-5-[4-(difluoromethoxy)benzoyl]thiazol-2-yl]-4-chloro-3-fluoro-anilino)propanamide]"
3,2.76,"CC(C(N)=O)N(c1ccc(F)c(F)c1)c1nc(N)c(C(=O)c2ccc(OC(F)F)cc2)s1 (racemic) [Example 49, rac-2-(N-[4-amino-5-[4-(difluoromethoxy)benzoyl]thiazol-2-yl]-3,4-difluoro-anilino)propanamide]"
4,378,"CC(C(N)=O)N(c1ccc(F)c(F)c1)c1nc(N)c(C(=O)c2ccncc2)s1 (racemic) [Example 50, rac-2-(N-[4-amino-5-(pyridine-4-carbonyl)thiazol-2-yl]-3,4-difluoro-anilino)propanamide]"
5,99.2,"COc1ccc(C(=O)c2sc(N(c3ccc(F)c(F)c3)C(C)C(N)=O)nc2N)cn1 (racemic) [Example 52, rac-2-(N-[4-amino-5-(6-methoxypyridine-3-carbonyl)thiazol-2-yl]-3,4-difluoro-anilino)propanamide]"
6,30.8,"CC(C(N)=O)N(c1ccc(F)c(F)c1)c1nc(N)c(C(=O)c2ccc(C(F)(F)F)nc2)s1 (racemic) [Example 53, rac-2-(N-[4-amino-5-[6-(trifluoromethyl)pyridine-3-carbonyl]thiazol-2-yl]-3,4-difluoro-anilino)propanamide]"
7,9.74,"Cc1nc(N(c2ccc(F)c(F)c2)C(C)C(N)=O)sc1C(=O)c1ccc(OC(F)F)cc1 (racemic) [Example 55, rac-2-(N-[5-[4-(difluoromethoxy)benzoyl]-4-methyl-thiazol-2-yl]-3,4-difluoro-anilino)propanamide]"
8,120,"CC(C(N)=O)N(c1ccc(Cl)c(F)c1)c1nc(N)c(C(=O)c2ccncc2)s1 (racemic) [Example 56, rac-2-(N-[4-amino-5-(pyridine-4-carbonyl)thiazol-2-yl]-4-chloro-3-fluoro-anilino)propanamide]"
9,155,"CC(C(N)=O)N(c1ccc(Cl)cc1)c1nc(N)c(C(=O)c2ccncc2)s1 (racemic) [Example 57, rac-2-(N-[4-amino-5-(pyridine-4-carbonyl)thiazol-2-yl]-4-chloro-anilino)propanamide]"
10,16.7,"COc1ccc(C(=O)c2sc(N(c3ccc(Cl)cc3)C(C)C(N)=O)nc2N)cc1 (racemic) [Example 58, rac-2-(N-[4-amino-5-(4-methoxybenzoyl)thiazol-2-yl]-4-chloro-anilino)propanamide]"
11,10.3,"COc1ccc(C(=O)c2sc(N(c3ccc(Cl)c(F)c3)C(C)C(N)=O)nc2N)cc1 (racemic) [Example 59, rac-2-(N-[4-amino-5-(4-methoxybenzoyl)thiazol-2-yl]-4-chloro-3-fluoro-anilino)propanamide]"
12,403,"CC(C(N)=O)N(c1ccccc1)c1nc(N)c(C(=O)c2ccccc2)s1 (racemic) [Example 60, rac-2-(N-(4-amino-5-benzoyl-thiazol-2-yl)anilino)propanamide]"
13,93.2,"CC(C(N)=O)N(c1ccc(F)cc1)c1nc(N)c(C(=O)c2ccccc2)s1 (racemic) [Example 61, rac-2-(N-(4-amino-5-benzoyl-thiazol-2-yl)-4-fluoro-anilino)propanamide]"
14,33.9,"Cc1ccc(C(=O)c2sc(N(c3ccc(F)cc3)C(C)C(N)=O)nc2N)cc1 (racemic) [Example 63, rac-2-(N-[4-amino-5-(4-methylbenzoyl)thiazol-2-yl]-4-fluoro-anilino)propanamide]"
15,55.8,"CC(C(N)=O)N(c1ccc(F)cc1)c1nc(N)c(C(=O)c2ccc(F)cc2)s1 (racemic) [Example 64, rac-2-(N-[4-amino-5-(4-fluorobenzoyl)thiazol-2-yl]-4-fluoro-anilino)propanamide]"

row,Compound,IC50 [nM]
1,"CC(C(N)=O)N(c1ccc(F)cc1)c1nc(N)c(C(=O)c2ccc(OC(F)F)cc2)s1 (racemic) [Example 44, rac-2-(N-[4-amino-5-[4-(difluoromethoxy)benzoyl]thiazol-2-yl]-4-fluoro-anilino)propanamide]",8.83
2,"COc1ccc(C(=O)c2sc(N(c3ccc(F)c(F)c3)C(C)C(N)=O)nc2N)cc1 (racemic) [Example 51, rac-2-(N-[4-amino-5-(4-methoxybenzoyl)thiazol-2-yl]-3,4-difluoro-anilino)propanamide]",16.6
